The subject of experiment [1] is encephalitogenic lymphocytes. Briefly: Chemokine-induced adhesion of murine encephalitogenic T cells to ICAM-1. It is filed as cell-based, SJL mice. As to conditions: ICAM-1; for Chemokine-induced Adhesion in encephalitogenic lymphocytes, Mean counts ± S.D., in presence of MIP3-β stimulation: 1 μM CCL19 (MIP-3beta). As for the experimental part:
(§1) Adhesion was performed on purified integrin ligands and was evaluated as reported in Constantin G. et al., Immunity, 16, 759-769, 2000. Briefly, primary naïve lymphocytes, polymorphonuclear neutrophils (PMNs) or monocytes were isolated form healthy donors. In other experiments, murine autoreactive T cells were obtained from SJL mice immunized with PLP139-151 as described (Piccio L. et al., J. Immunol, 168, 1940-1949, 2002). Cells were resuspended at 4×10^6/ml in PBS, CaCl2, MgCl2 1 mM, 10% FCS, pH 7.2. Adhesion assays were performed on eighteen well glass slides coated overnight at 4° C. with ligands for CR3 (fibrinogen) or LFA-1 (ICAM-1). 20 μl of cell suspension were added to the wells and stimulated at 37° C. with 5 μl of agonists prior to washing, fixation and computer-assisted enumeration of bound cells.
(§2) Integrin activation was measured as induction of rapid adhesion triggered by the classical chemoattractant N-formyl-L-methionyl-L-leucyl-phenylalanine (fMLP) (100 nM) or by the CC chemokine MIP3β (CCL19, 1 μM). PMNs and monocytes were triggered to adhere to fibrinogen (CR3 ligand); naive human lymphocytes or murine encephalitogenic T cells were triggered to adhere to ICAM-1 (LFA-1 ligand). Triggered adhesion was evaluated after 2 min of stimulation under static conditions. The cells were pretreated at 37° C. for 30-60 min with the indicated concentrations of the test compound. Results are expressed as percentage of inhibition over control (=100%) and are the mean of three experiments in the case of human leukocytes. Results are expressed as mean counts and are the mean counts ±S.D of three experiments and are the mean of three experiments in the case of murine encephalitogenic lymphocytes.
Chemokines trigger rapid arrest of lymphocytes in blood vessels through pertussis toxin-sensitive G protein coupled receptors. Rapid adhesion to purified ICAM-1 was measured in in vitro adhesion assays using control/untreated cells and lymphocytes treated with concentration between 5-50 μM for 1 h. Autoreactive lymphocytes were then stimulated with 1 μM CCL19 (MIP-3beta) for 3 min. […] These compounds were already efficient in blocking adhesion using a concentration of 5 μM for the cell treatment.

Experiment [2] has as its system monocytes. Briefly: Chemotaxis assay, monocytes (fMLP). It is filed as cell-based. As to conditions: Homo sapiens, Monocyte, fMLP 10 nM, 2 h; for inhibition at 10 µM: [cpd] 10 μM; for inhibition at 25 µM: [cpd] 25 μM; for inhibition at 50 µM: [cpd] 50 μM. As to the method: (§3) PMNs and monocytes migration was assessed using 1 or 3-μm pore size transwells (Bio-Coat Becton-Dickinson), while lymphocytes by using 5-elm pore size transwells.
(§4) Cells were in RPMI1640, containing 10% heat-inactivated Fetal Calf Serum (FCS) and 20 mM HEPES, pH 7.3, at 2×10^6/ml. 100 μl of cell suspension were added to the top well, and 600 μl of medium, containing chemoattractants and test compound, were added to the bottom well. Migration was evaluated after 2 h for PMNs and monocytes and after 4 h for lymphocytes. fMLP 10 nM (PMNs and monocytes) and MIP-3β 100 nM (lymphocytes) were utilized as chemoattractants. After fixation with 1.5% glutaraldehyde, migrated cells were counted by fluorescence-activated celli sorting using polystyrene beads (Polyscience) as an internal standard (Campbell J. J. et al. J. Cell. Biol. 134, 255-266, 1996; Laudanna C. et al. J. Biol. Chem. 273,46, 30306-30315, 1998).
(§5) Results are expressed as percentage of inhibition over control (=100%), and are the mean of three experiments.

Experiment [3] deals with lymphocytes. Briefly: Chemokine-induced rapid adhesion of lymphocytes to ICAM-1 (MIP3β). It is filed as cell-based. The settings on record: Homo sapiens, Lymphocyte, MIP3β 1 μM; for inhibition at 10 µM: [cpd] 10 μM, read-out: Inhibition of Adhesion (%) Lymphocytes (MIP3-β); for inhibition at 25 µM: [cpd] 25 μM; for inhibition at 25 µM / inhibition at 50 µM: read-out: Inhibition of Adhesion (%) Lymphocytes (MIP3-β) (converted); for inhibition at 50 µM: [cpd] 50 μM. As to the method:
as §1, §2
(§6) Integrin activation was measured as induction of rapid adhesion triggered by the “classical” chemoattractant fMLP (100 nM) or by the CC chemokine MIP3β (CCL19, 1 μM). PMNs were triggered to adhere to fibrinogen (CR3 ligand); lymphocytes were triggered to adhere to ICAM-1 (LFA-1 ligand).

In experiment [4] the test system is encephalitogenic lymphocytes. Briefly: Spontaneous adhesion of encephalitogenic T cells on purified ICAM-1. It is filed as cell-based, SJL mice. As to conditions: Mus musculus, Lymphocyte, 1 h; for inhibition at 5 µM: [cpd] 5 μM, read-out: Inhibition of Spontaneous Adhesion in encephalitogenic lymphocytes (% of control/non-treated cells) ICAM-1; for inhibition at 10 µM: [cpd] 10 μM; for inhibition at 10 µM / inhibition at 50 µM: read-out: Inhibition of Spontaneous Adhesion in encephalitogenic lymphocytes (% of control/non-treated cells) ICAM-1 (converted); for inhibition at 50 µM: [cpd] 50 μM. As to the method: Spontaneous adhesion of encephalitogenic lymphocytes was measured in adhesion assays on purified ICAM-1 and VCAM-1 as previously described (Constantin G. et al., J. Immunol. 162, 1144-1149, 1999). Autoreactive T cells were obtained from SJL mice immunized with PLP139-151 as described (Piccio L. et al., J. Immunol. 168, 1940-1949, 2002). Lymphocytes were treated with test compound at concentrations between 5-100 μM for 1 h, while control/untreated cells were treated with vehicle (DMSO). Results are expressed as percentage of inhibition over control (=100%) ±S.D and are the mean of three-four experiments.
ICAM-1 and VCAM-1 are adhesion molecules from the family of immunoglobulins and control the migration of lymphocytes through the endothelium during inflammatory responses. Encephalitogenic T cells are activated lymphocytes displaying spontaneous adhesion on ICAM-1 and VCAM-1 and have increased migration capacities in inflammation sites. Spontaneous adhesion of encephalitogenic lymphocytes was measured in adhesion assays on purified ICAM-1 and VCAM-1 as described in the method.

Experiment [5] relates to monocytes. Nature of the experiment: Chemokine-induced rapid adhesion of monocytes to fibrinogen (fMLP). It is filed as cell-based. As to conditions: Homo sapiens, Monocyte, fMLP 100 nM; for inhibition at 10 µM: [cpd] 10 μM; for inhibition at 25 µM: [cpd] 25 μM; for inhibition at 50 µM: [cpd] 50 μM. As to the method:
as §1, §2

Experiment [6] deals with PMNs. Nature of the experiment: Chemokine-induced rapid adhesion of PMNs to fibrinogen (fMLP). It is filed as cell-based. As to conditions: Homo sapiens, 2 min, fMLP 100 nM; for inhibition at 10 µM: [cpd] 10 μM; for inhibition at 25 µM: [cpd] 25 μM; for inhibition at 50 µM: [cpd] 50 μM. As for the experimental part:
as §1, §2, §6

Experiment [7] relates to lymphocytes. Briefly: Chemotaxis assay, lymphocytes (MIP-3β). It is filed as cell-based. As to conditions: Homo sapiens, Lymphocyte, MIP-3β 100 nM, 4 h; for inhibition at 10 µM: [cpd] 10 μM, read-out: Inhibition of Chemotaxis (%) Lymphocytes (MIP3-β); for inhibition at 25 µM: [cpd] 25 μM; for inhibition at 25 µM / inhibition at 50 µM: read-out: Inhibition of Chemotaxis (%) Lymphocytes (MIP3-β) (converted); for inhibition at 50 µM: [cpd] 50 μM. As to the method:
as §3, §4, §5

In experiment [8] the test system is PMNs. Nature of the experiment: Chemotaxis assay, PMNs (fMLP). It is filed as cell-based. The settings on record: Homo sapiens, fMLP 10 nM, 2 h; for inhibition at 10 µM: [cpd] 10 μM; for inhibition at 25 µM: [cpd] 25 μM; for inhibition at 50 µM: [cpd] 50 μM. As to the method:
as §3, §4, §5

Turning to `COc1ccc(-c2c(C(N)=O)[nH]c3cc(OC)c(OC)cc23)cc1` [Example 14], the “Chemokine-induced Adhesion in encephalitogenic lymphocytes, Mean counts ± S.D., in presence of MIP3-β stimulation” value in experiment [1] ([cpd] 1 μM) is given as 120.3 ± 9.8; in experiment [1] ([cpd] 5 μM) it was 101.2 ± 6.1; in experiment [1] ([cpd] 50 μM), 56.8 ± 2.2. Moreover, the figures for the “Adhesion in encephalitogenic lymphocytes, Mean counts ± S.D., in absence of MIP3-β stimulation” value in experiment [1] ([cpd] 1 μM), in experiment [1] ([cpd] 5 μM) and in experiment [1] ([cpd] 50 μM) were 67.6 ± 2.0, 41.8 ± 4.2 and 20.9 ± 11.7, respectively.
As for `COc1ccc(-c2c(C#N)n(CCN(C)C)c3cc(OC)c(OC)cc23)cc1` [Example 18], the inhibition at 10 µM was 17.3% in the experiment with monocytes [2]; 66.3% with lymphocytes [3]; 36.8% in experiment [4]; 7.8% with monocytes [5]; 2.2% with PMNs [6]; 51% in the experiment on lymphocytes [7]. In the experiment with PMNs [8], this compound displayed an inhibition at 10 µM of 52.3%. Moreover, the inhibition at 25 µM in the experiment on monocytes [2] is 62.1%; in the experiment with lymphocytes [3] it was 91.4%; with monocytes [5], 14.7%; in the experiment on PMNs [6], 10.4%; with lymphocytes [7], 86.7%; in the experiment with PMNs [8], 77.6%. The inhibition at 50 µM was 84.5% with monocytes [2]; 95.1% with lymphocytes [3]; 96.9% in experiment [4]; 31.2% in the experiment with monocytes [5]; 26.7% with PMNs [6]; 92.3% in the experiment with lymphocytes [7]. The compound further showed an inhibition at 50 µM with PMNs [8] of 91.2%. The inhibition at 5 µM in experiment [4] stood at 28.7%.
Consider `COc1cc2[nH]c(C(=O)N(C)C)c(-c3ccccc3)c2cc1OC` [Example 46], for which the inhibition at 10 µM with monocytes [2] was 48.2%; in the experiment on lymphocytes [3], 34.1%; in experiment [4] it was 25.9%; in the experiment on monocytes [5], 12.6%; with PMNs [6], 16.7%; in the experiment on lymphocytes [7], 19.9%. This compound also showed an inhibition at 10 µM in the experiment with PMNs [8] of 65.3%. Besides, the inhibition at 25 µM is 63.8% in the experiment on monocytes [2]; 58.8% in the experiment with lymphocytes [3]; 32.2% in the experiment with monocytes [5]; 28.7% with PMNs [6]; 45% in the experiment on lymphocytes [7]; 74.5% in the experiment on PMNs [8]. The inhibition at 50 µM is 89.9% with monocytes [2]; 67.1% with lymphocytes [3]; 96.3% in experiment [4]; 37.6% in the experiment with monocytes [5]; 38.4% in the experiment on PMNs [6]; 85% with lymphocytes [7]. In the experiment with PMNs [8], the inhibition at 50 µM was 93.1%. In addition, in experiment [4], the inhibition at 5 µM came to 15.8%.
Consider `COc1cc2[nH]c(C(=O)N3CCOCC3)c(-c3ccccc3)c2cc1OC` [Example 47], for which the inhibition at 10 µM is 56.5% in the experiment on monocytes [2]; 43.8% with lymphocytes [3]; 17.2% in experiment [4]; 8.7% in the experiment with monocytes [5]; 16.6% with PMNs [6]; 44.3% with lymphocytes [7]. The compound also gave an inhibition at 10 µM with PMNs [8] of 75.4%. For the same compound, the inhibition at 25 µM in the experiment with monocytes [2] is 82.4%; with lymphocytes [3] it was 52.5%; in the experiment with monocytes [5] it was 14.4%; with PMNs [6] it was 37.1%; in the experiment with lymphocytes [7] it was 66.6%; in the experiment on PMNs [8], 87.5%. In addition, the inhibition at 50 µM in the experiment with monocytes [2] is 93.9%; in the experiment on lymphocytes [3], 77.5%; in experiment [4] it was 93.4%; in the experiment on monocytes [5] it was 22.4%; in the experiment on PMNs [6] it was 45.4%; in the experiment on lymphocytes [7] it was 88.2%. Moreover, the inhibition at 50 µM in the experiment on PMNs [8] is 96.1%. In addition, in experiment [4], the inhibition at 5 µM came out at 7.1%.
As to `COc1ccc(-c2c3n(c4cc(OC)c(OC)cc24)CCOC3)cc1` [Example 76], the “Chemokine-induced Adhesion in encephalitogenic lymphocytes, Mean counts ± S.D., in presence of MIP3-β stimulation” value in experiment [1] ([cpd] 1 μM) was 102.9 ± 2.9; in experiment [1] ([cpd] 5 μM), 87.7 ± 12.0; in experiment [1] ([cpd] 50 μM), 66.6 ± 1.8. Moreover, the “Adhesion in encephalitogenic lymphocytes, Mean counts ± S.D., in absence of MIP3-β stimulation” value was determined as 36.9 ± 4.0 in experiment [1] ([cpd] 1 μM), 28.3 ± 8.9 in experiment [1] ([cpd] 5 μM) and 23.0 ± 1.9 in experiment [1] ([cpd] 50 μM). This compound also gave an inhibition at 100 µM with PMNs [6] ([cpd] 100 μM) of 66%.

These data come from patent US20080226718A1, “Indole and Azaindole Derivatives For the Treatment of Inflammatory and Autoimmune Diseases” (Brane Discovery S.r.l, priority 2005, published 2008).
